Patent US20230310427A1, “NEW THERAPEUTIC USE OF RILPIVIRINE” (UNIVERSITY OF SOUTH AUSTRALIA, priority 2020, published 2023)

How the values were obtained:
Jurkat cells = assay: Apoptosis analysis (Annexin-V FITC/PI); type: cell-based; conditions: 48 hour treatment, various concentrations
Method: (§1) Instead of ethanol fixation, the cell number of each sample was counted, and the cells were diluted to 1×10^5 cells with 1 mL PBS in fresh FACS tubes. Cells were centrifuged and then re-suspended in 1 mL of cold PBS (whole step repeated twice). Pelleted cells were resuspended in 100 µL binding buffer, and subsequently 3 µL of Annexin V and 3 µL of PI were added to all tubes and incubated in the dark for 15 min at room temperature. Following the incubation period, 200 µL of 1 x binding buffer was added. Samples were assessed using a flow cytometer (Cytoflex) within 1 h of staining and data were analysed using Cytexpert software.

HL-60 cells = assay: Apoptosis analysis (Annexin-V FITC/PI); type: cell-based; conditions: 48 hour treatment, various concentrations
Method: as §1

p53 WT A2780 cells = assay: Apoptosis analysis (Annexin-V FITC/PI); type: cell-based; conditions: 48 hour treatments, various concentrations
Method: as §1

NB4 cells = assay: Apoptosis analysis (Annexin-V FITC/PI); type: cell-based; conditions: 48 hour treatment, various concentrations
Method: as §1

p21 in A2780 cells = assay: Western blot, cell cycle regulatory proteins; type: cell-based; conditions: 24 hour, increasing concentration
Method: (§2) For Western blotting, cells (8×10^5) were seeded in a culture dish with 10 mL medium and incubated overnight at 37° C., 5% CO2. Untreated and compound-treated cells were lysed using phosphate lysis buffer and protease inhibitors. The protein concentration of each sample was determined by Bio-Rad DC™ protein assay (Bio-Rad Laboratories, Hercules, CA, United States of America). The protein was deactivated at 95° C. for 5 min and then resolved on 4-20% polyacrylamide gels by electrophoresis. Proteins were transferred to polyvinylidene difluoride (PDVF) membrane and blocked for 1 h with 10% skimmed milk (SM) in Tris-buffered saline and Tween (TBST). After adding primary antibody, the membranes were incubated overnight on a rocker in a 4° C. cold room. The following day, membranes were washed in TBST (4×20 min), incubated for at least 1 h at room temperature with the appropriate horseradish peroxidase conjugated secondary antibody. Following this, the blots were washed with TBST (4×20 min) again. The blots were then treated with Western blotting detection reagent and the band intensity was determined using a Bio-Rad ChemiDoc™ MP imaging system (Bio-Rad Laboratories). All the antibodies used for protein detection were from Cell Signaling Technology (Danvers, MA, United States of America). The primary and secondary antibodies used were obtained from Cell Signalling Technology (Danvers, MA, United States of America).

p53 in A2780 cells = assay: Western blot, cell cycle regulatory proteins; type: cell-based; conditions: 24 hour, increasing concentration
Method: as §2

[1] = test system: phosphorylated retinoblastoma (Rb) protein in A2780 cells; assay: Western blot, cell cycle regulatory proteins; type: cell-based; conditions: 24 hour, increasing amounts
Method: as §2

cyclin D1 in A2780 cells = assay: Western blot, cell cycle regulatory proteins; type: cell-based; conditions: 24 hour, increasing amounts
Method: as §2

[2] = test system: auto-phosphorylation of Aurora A at Thr288 in HL-60 cells; assay: Western blot, Aurora A auto-phosphorylation; type: cell-based; conditions: 24 hour, 5 µM, 10 µM and 20 µM
Method: as §2, with “The primary and secondary antibodies used were obtained from Cell Signalling Technology (Danvers, MA, United States of America).” left out

[3] = test system: auto-phosphorylation of Aurora A at Thr288 in NB4 cells; assay: Western blot, Aurora A auto-phosphorylation; type: cell-based; conditions: 24 hour, 5 µM, 10 µM and 20 µM
Method: as §2, with “The primary and secondary antibodies used were obtained from Cell Signalling Technology (Danvers, MA, United States of America).” left out

[4] = test system: expanded panel of 429 different kinases; assay: Kinase profiling, expanded panel; type: biochemical; conditions: 1 µM
Method: The ability of compounds to inhibit kinases was measured using ADP-Glo^Tm assay kits (Promega, Madison, WI, United States of America) or externally using radioisotope based assays (Reaction Biology Corporation, Malvern, PA, United States of America and Eurofins discovery services, France). The ADP-Glo assay was performed as reported previously (Basnet SK et al., Mol Pharmacol 88(5):935-948, 2015).The assay plate was read for luminescence using Envision multi-label plate reader (PerkinElmer, Waltham, MA, United States of America). Half-maximal inhibition (IC50) values were determined from a plot of percent residual activity versus concentration of test compounds using GraphPad Prism software. Ki values were calculated from IC50 values using the Cheng-Prusoff equation: Ki= IC50/ [1 + ([ATP]/Km ATP)], where [ATP] is the ATP concentration used for the IC50 determination and Km ATP for each kinase is determined from an individual experiment.
In a subsequent kinase profiling experiment, using an expanded panel of 429 different kinases, the inhibitory activity of Rilpivirine was confirmed using a reduced concentration of 1 µM. […] The percent inhibition against Aurora A, PIM1, LYN and YES kinases were 86, 78, 77 and 83% respectively at the concentration of 1 µM of Rilpivirine. The other 424 kinases were inhibited by less than 70 % at this concentration.

[5] = test system: Leukemia (HL-60, U-937, NB4, Jurkat, K-562), ovarian (A2780), prostate (PC3) and breast (T47D) cancer cell lines; assay: Cell viability assays (MTT and resazurin); type: cell-based; conditions: 72 hour treatment; range over all cell lines tested; read-out: IC50, inhibition of cancer cell proliferation
From the text: The MTT (3-(4,5-dimethylthiazol-2-yl)-2,5-diphenyl tetrazolium bromide; Sigma-Aldrich, St Louis, MO, United States of America) assay was used to determine half maximal inhibition values (IC50) in response to drug treatment using a number of different adherent cancer cell lines. The MTT was converted by metabolically active cells into an insoluble formazan product which was solubilised with 100% DMSO. The solubilised formazan gives absorbance at 560 nm which is directly proportional to the number of viable cells. The assay was carried out as previously described (Wang S et al., J Med Chem 47(7):1662-1675, 2004). The absorbance of treated wells was read using an EnVision multi-label plate reader. The resazurin assay was carried out for non-adherent cell lines as reported previously (Yu M et al., EJMC 95:116-126, 2015). IC50 values were determined by non-linear regression analysis using GraphPad Prism software.

- percent inhibition of the other 424 kinases [4]: less than 70%
- kinase selectivity ([4]; panel of 429 kinases): selective inhibitor of Aurora A
- IC50 [5]: 3 to 8 µM
SMILES: Cc1cc(/C=C/C#N)cc(C)c1Nc1ccnc(Nc2ccc(C#N)cc2)n1 [Rilpivirine, 4-[[4-[4-[(E)-2-cyanoethenyl]-2,6-dimethylanilino]pyrimidin-2-yl]amino]benzonitrile]
- induction of apoptosis (Jurkat cells): induces apoptosis in all of these cell lines in a dose-dependent manner
- induction of apoptosis (HL-60 cells): induces apoptosis in all of these cell lines in a dose-dependent manner
- induction of apoptosis (p53 WT A2780 cells): induces apoptosis in this cell line in a dose-dependent manner
- induction of apoptosis (NB4 cells): induces apoptosis in all of these cell lines in a dose-dependent manner
- p21 protein (p21 in A2780 cells): induced its target gene p21
- expression of p53 protein (p53 in A2780 cells): increase in the expression of p53
- amount of phosphorylated Rb protein [1]: decrease
- amount of cyclin D1 (cyclin D1 in A2780 cells): decrease
- level of auto-phosphorylated Aurora A (Thr288) [2]: marked decrease in the level of auto-phosphorylated protein
- level of auto-phosphorylated Aurora A (Thr288) [3]: marked decrease in the level of auto-phosphorylated protein
